The target of one assay is Collagenase 3 (Homo sapiens, UniProt P45452). The assay can be described thus: Fluorimetric Assay. To be noted: pH 7; 25 °C.
For another assay, the target named is Stromelysin-1 (Homo sapiens, UniProt P08254). As to the kind of experiment: Fluorimetric Assay. The settings on record: pH 7; 25 °C.

The text below walks through data of BindingDB's records for doi:10.1016/j.bioorg.2010.11.002 (University of Catania, 2011).

Stromelysin-1, sequence (P08254 whole entry): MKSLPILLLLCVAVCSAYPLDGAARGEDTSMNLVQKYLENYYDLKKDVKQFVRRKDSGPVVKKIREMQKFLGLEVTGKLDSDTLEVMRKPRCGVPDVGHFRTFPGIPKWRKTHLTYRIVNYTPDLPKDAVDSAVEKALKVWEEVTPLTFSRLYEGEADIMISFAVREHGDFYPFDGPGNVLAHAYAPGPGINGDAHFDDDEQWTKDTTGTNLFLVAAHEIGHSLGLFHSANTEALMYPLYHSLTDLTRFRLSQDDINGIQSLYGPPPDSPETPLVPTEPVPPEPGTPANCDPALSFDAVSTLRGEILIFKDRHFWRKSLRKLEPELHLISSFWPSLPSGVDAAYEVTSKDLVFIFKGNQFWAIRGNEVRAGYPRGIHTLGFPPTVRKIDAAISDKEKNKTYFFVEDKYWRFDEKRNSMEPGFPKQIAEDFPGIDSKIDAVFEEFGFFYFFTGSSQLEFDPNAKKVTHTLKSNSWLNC

For the compound `O=C1N/C(=N/c2nsc3ccccc23)S/C1=C/c1ccccc1` [2-(benzo[d]isothiazol-3-ylimino)-5-benzylidenethiazolidin-4-one, 2b], at Collagenase 3, half-maximal inhibition (IC50) was put at 32 µM.
Consider `Oc1csc(Nc2nc3ccccc3s2)n1` [2-(benzo[d]-thiazol-2-ylimino)-thiazolidin-4-one, 1a], for which, on Stromelysin-1, inhibition was half-maximal at 36.7 µM (IC50).
